Measurements: patent US20160207906A1, “NOVEL 2,6-DIAMINOPYRIMIDINE DERIVATIVE” (CARNA BIOSCIENCES, INC., priority 2013, published 2016)
“Also recorded” adds a separate entry of the source.

Columns and labels:
Dephosphorylated BTK = target: T1, Dephosphorylated BTK (Homo sapiens, UniProt Q06187); experiment: BTK activity inhibition test (mobility shift assay, dephosphorylated BTK); assay type: biochemical; details: 200 μM ATP in substrate mixture, 1 hour at room temperature
T1 construct: purchased Carna Biosciences, Inc
Experimental: Dephosphorylated BTK was obtained by adding A protein phosphatase (manufactured by New England BioLabs Inc., Code No. P0753S) and MnCl2 at 10 U/μg and 2 mM, respectively to biotinylated BTK protein BTN-BTK (manufactured by Carna Biosciences, Inc.) enzyme solution, reacting the mixture at 4° C. overnight, and removing of A protein phosphatase by anti DYKDDDDK-tag antibody agarose gel chromatography, followed by buffer exchange using a 10DG Desalting Column.
The kinase activity was measured using QuickScout Screening Assist (trade mark) MSA (commercially available kit manufactured by Carna Biosciences, Inc.) by mobility shift assay (MSA) method. The substrate of the kinase reaction was an FITC-labeled SRCtide peptide included in the kit. An assay buffer [20 mM HEPES, 0.01% Triton X-100 (Trade mark), 2 mM dithiothreitol, pH7.5] was used and adjusted at 4 μM substrate, 20 mM MgCl2 and 200 μM ATP to obtain a substrate mixture solution. The enzyme solution was also prepared by diluting the dephosphorylated BTK to 0.6 nM using the assay buffer. The 10 mM solution of the test compound in DMSO was further diluted with DMSO to 10 levels of the concentration (0.00003 mM, 0.0001 mM, 0.0003 mM, 0.001 mM, 0.003 mM, 0.01 mM, 0.03 mM, 0.1 mM, 0.3 mM, 1 mM), each of which was subjected to a 25-fold dilution with the assay buffer to obtain the drug solutions (4% DMSO solutions), 5 μL of the drug solution or a control solution (4% DMSO-assay buffer), 5 μL of the substrate mixture solution, and 10 μL of the enzyme solution were mixed in the wells of a polypropylene 384-well plate and allowed to react at room temperature for 1 hour, and then quenched by adding 60 μL of the termination buffer included in the kit. Subsequently, the quantities of the substrates (S) and the phosphorylated substrate (P) in the reaction solution were measured using LabChip EZ Reader II system (manufactured by Caliper Life Sciences) according to the protocol of the assay kit.
The heights of the peaks of the isolated substrate and the phosphorylated substrate were represented as S and P, respectively, and a blank which contained the assay buffer instead of the enzyme solution was also measured.
The inhibition rate (%) of the test compound was calculated according to the following equation.
Inhibition rate (%)=(1−(C−A)/(B−A))×100
wherein, A, B and C represent P/(P+S) of the blank well, P/(P+S) of the control well and P/(P+S) of the compound-containing well, respectively.
The IC50 value was calculated via a regression analysis of the inhibition rate (%) and the test compound concentration (logarithmic value).

[1] = tested on: anti-IgM antibody BCR stimulation-induced intracellular calcium influx in Ramos cells; experiment: Inhibition test on the change of Ramos intracellular calcium ion; assay type: cell-based; details: Fluo-8NW, anti-IgM antibody 2.0 μg/mL
Experimental: The intracellular BTK inhibition by the compounds of the present invention was verified by measuring the effects of the compounds of the present invention on “anti-IgM antibody BCR stimulation-induced intracellular calcium influx”.
One day before measurement, the Ramos cells were cultured as being suspended again at a cell density of 1.0×10^6 cells/mL in a fresh growth medium (growth medium as used in Test Example 2), and the cells were recovered next day by centrifugation and washed with RPMI-1640 medium supplemented with 5% penicillin-streptomycin (Nacalai Tesque, Inc.) (Medium 1). These cells were suspended again at a cell density of 2.0×10^6 cells/mL in RPMI-1640 medium supplemented with 1% Ultra Low IgG FBS (GIBCO, #16250) and 5% penicillin-streptomycin (Nacalai Tesque, Inc.) (Medium 2), and thereafter each 100 μL of the cell suspension was added to each well of a Poly Lysine-coated microplate (BD BioCoat™, #356692), centrifuged (700 rpm, 3 minutes) and then incubated for 1 hour in a 5% CO2 incubator at 37° C. […]
The Ramos intracellular calcium ion concentration was measured as a fluorescent intensity of the calcium indicator Fluo-8NW using a microplate reader (SynergyH1) (Ex/Em=490/525 nm). […]

T1 sequence (Q06187 whole entry): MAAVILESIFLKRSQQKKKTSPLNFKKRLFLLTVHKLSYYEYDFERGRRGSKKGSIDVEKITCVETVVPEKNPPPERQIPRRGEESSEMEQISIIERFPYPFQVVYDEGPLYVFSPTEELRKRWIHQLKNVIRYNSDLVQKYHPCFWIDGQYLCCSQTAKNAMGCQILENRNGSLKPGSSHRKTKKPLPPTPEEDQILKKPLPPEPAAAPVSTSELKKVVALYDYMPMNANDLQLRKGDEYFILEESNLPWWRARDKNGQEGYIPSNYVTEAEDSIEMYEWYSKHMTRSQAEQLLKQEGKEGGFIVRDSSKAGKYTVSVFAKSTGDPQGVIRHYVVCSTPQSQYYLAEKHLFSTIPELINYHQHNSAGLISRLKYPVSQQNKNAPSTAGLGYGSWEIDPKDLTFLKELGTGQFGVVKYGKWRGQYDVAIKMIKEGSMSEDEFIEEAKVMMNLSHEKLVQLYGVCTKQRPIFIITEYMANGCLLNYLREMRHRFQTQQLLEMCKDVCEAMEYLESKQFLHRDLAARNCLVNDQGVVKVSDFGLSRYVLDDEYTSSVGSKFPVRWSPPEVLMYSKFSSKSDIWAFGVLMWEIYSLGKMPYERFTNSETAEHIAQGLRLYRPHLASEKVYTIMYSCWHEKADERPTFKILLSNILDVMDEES

IC50 (Dephosphorylated BTK) [nM]	Structure (SMILES)	inhibition of anti-IgM antibody BCR stimulation-induced intracellular calcium ion variation (FIG. 1) [1]
0.6	Cn1cc(Nc2nc(N)cc(-c3cccc(-n4ncc5cc(C6CC6)cc(F)c5c4=O)c3CO)n2)cn1 [Example 20, 2-(3-{6-Amino-2-[(1-methyl-1H-pyrazol-4-yl)amino]pyrimidin-4-yl}-2-(hydroxy-methyl)phenyl)-6-cyclopropyl-8-fluorophthalazin-1(2H)-one]	–
2.1	N#Cc1cc(Nc2nc(N)cc(-c3cccc(-n4ccc5cc(C6CC6)cc(F)c5c4=O)c3CO)n2)cn1C1CC1 [Example 10, 4-({4-Amino-6-[3-(6-cyclo-propyl-8-fluoro-1-oxoiso-quinolin-2(1H)-yl)-2-(hydroxymethyl)phenyl]pyrimidin-2-yl}amino)-1-cyclopropyl-1H-pyrrole-2-carbonitrile]	–
0.8	Cn1cc(Nc2nc(N)cc(-c3ccnc(-n4ccc5cc(C6CC6)cc(F)c5c4=O)c3CO)n2)cn1 [Example 22, 2-(4-{6-Amino-2-[(1-methyl-1H-pyrazol-4-yl)amino]pyrimidin-4-yl}-3-(hydroxy-methyl)pyridin-2-yl)-6-cyclo-propyl-8-fluoroisoquinolin-1(2H)-one]	–
0.3	Nc1cc(-c2cccc(-n3ccc4cc(C5CC5)cc(F)c4c3=O)c2CO)nc(Nc2cnn(CC3CC3)c2)n1 [Example 8, 2-[3-(6-Amino-2-{[1-(cyclopropylmethyl)-1H-pyrazol-4-yl]amino}pyrimidin-4-yl)-2-(hydroxymethyl)phenyl]-6-cyclopropyl-8-fluoroisoquinolin-1(2H)-one]	–
0.6	Nc1cc(-c2cccc(-n3ccc4cc(C5CC5)cc(F)c4c3=O)c2CO)nc(Nc2cn[nH]c2)n1 [Example 18, 2-(3-{2-[(1H-Pyrazol-4-yl)amino]-6-aminopyrimidin-4-yl}-2-(hydroxymethyl)phenyl)-6-cyclopropyl-8-fluoroiso-quinolin-1(2H)-one]	–
0.3	Nc1cc(-c2cccc(-n3ccc4cc(C5CC5)cc(F)c4c3=O)c2CO)nc(Nc2cnn(C3CC3)c2)n1 [Example 9, 2-(3-{6-Amino-2-[(1-cyclopropyl-1H-pyrazol-4-yl)amino]pyrimidin-4-yl}-2-(hydroxymethyl)phenyl)-6-cyclopropyl-8-fluoroisoquinolin-1(2H)-one]	–
1.7	Cn1cc(Nc2nc(N)cc(-c3cccc(-n4ccc5cc(C6CC6)cc(F)c5c4=O)c3CO)n2)cc1C#N [Example 5, 4-({4-Amino-6-[3-(6-cyclo-propyl-8-fluoro-1-oxoiso-quinolin-2(1H)-yl)-2-(hydroxymethyl)phenyl]pyrimidin-2-yl}amino)-1-methyl-1H-pyrrole-2-carbonitrile]	–
0.2	Cn1cc(Nc2nc(N)cc(-c3cccc(-n4ccc5cc(C6(C)CC6)cc(F)c5c4=O)c3CO)n2)cn1 [Example 25, 2-(3-{6-Amino-2-[(1-methyl-1H-pyrazol-4-yl)amino]pyrimidin-4-yl}-2-(hydroxy-methyl)phenyl)-8-fluoro-6-(1-methylcyclopropyl) isoquinolin-1(2H)-one]	–
6.4	Cn1cc(Nc2nc(N)cc(-c3cccc(-n4ccc5cc(C6CC6)cc(F)c5c4=O)c3CO)n2)cn1 [Example 2, 2-(3-{6-Amino-2-[ (1-methyl-1H-pyrazol-4-yl)amino]pyrimidin-4-yl}-2-(hydroxymethyl)phenyl)-6-cyclopropyl-8-fluoroisoquinolin-1 (2H)-one]	in a concentration-dependent manner from a low concentration; also recorded: inhibit the flux of calcium into the cells
2.1	Nc1cc(-c2cccc(-n3ccc4cc(C5CC5)cc(F)c4c3=O)c2CO)nc(Nc2ccc(N3CCOCC3)cc2)n1 [Example 1, 2-(3-{6-Amino-2-[(4-morpholinophenyl)amino]pyrimidin-4-yl}-2-(hydroxymethyl)phenyl)-6-cyclopropyl-8-fluoroisoquinolin-1 (2H)-one]	in a concentration-dependent manner from a low concentration; also recorded: inhibit the flux of calcium into the cells
0.8	CC(=O)c1cc(Nc2nc(N)cc(-c3cccc(-n4ccc5cc(C6CC6)cc(F)c5c4=O)c3CO)n2)cn1C [Example 17, 2-(3-{2-[(5-Acetyl-1-methyl-1H-pyrrol-3-yl)amino]-6-aminopyrimidin-4-yl}-2-(hydroxymethyl)phenyl)-6-cyclopropyl-8-fluoroiso-quinolin-1(2H)-one]	–
0.4	CN1CCN(c2ccc(Nc3nc(N)cc(-c4cccc(-n5ccc6cc(C7CC7)cc(F)c6c5=O)c4CO)n3)cc2)CC1 [Example 15, 2-[3-(6-Amino-2-{[4-(4-methylpiperazin-1-yl)phenyl]amino}pyrimidin-4-yl)-2-(hydroxymethyl)phenyl]-6-cyclopropyl-8-fluoroisoquinolin-1(2H)-one]	–
0.4	Cn1cc(Nc2nc(N)cc(-c3cccc(-n4ncc5cc(C6CC6)cc(F)c5c4=O)c3CO)n2)cc1C#N [Example 24, 4-({4-Amino-6-[3-(6-cyclo-propyl-8-fluoro-1-oxo-phthalazin-2(1H)-yl)-2-(hydroxymethyl)phenyl]pyrimidin-2-yl}amino)-1-methyl-1H-pyrrole-2-carbonitrile]	–
0.3	Cn1cc(Nc2nc(N)cc(-c3cccc(-n4ccc5cc(C(C)(C)C)cc(F)c5c4=O)c3CO)n2)cn1 [Example 7, 2-(3-{6-Amino-2-[(1-methyl-1H-pyrazol-4-yl)amino]pyrimidin-4-yl}-2-(hydroxymethyl)phenyl)-6-(tert-butyl)-8-fluoro-isoquinolin-1(2H)-one]	–
0.4	Nc1cc(-c2cccc(-n3ncc4cc(C5CC5)cc(F)c4c3=O)c2CO)nc(Nc2cnn(C3CC3)c2)n1 [Example 21, 2-(3-{6-Amino-2-[(1-cyclo-propyl-1H-pyrazol-4-yl)amino]pyrimidin-4-yl}-2-(hydroxymethyl)phenyl)-6-cyclopropyl-8-fluoro-phthalazin-1(2H)-one]	–
